Reference: patent publication US6376426B1, “Herbicidal 3-(heterocycl-1-yl)-uracils” (BASF Aktiengesellschaft, priority 1999, dated 2002)

What was measured:
Format in all cases: in vivo
Alopecurus myosuroides [1] = experiment: Pre-emergence herbicidal test, ALOMY; settings: PRE, 21 days after spraying
Description: (§1) To evaluate their herbicidal activity, compounds according to the invention are tested using a representative range of plants:
(§2) The pre-emergence tests involve spraying a liquid formulation of the compound onto the soil in which the seeds of the plant species mentioned above has recently been sown.
(§3) The soil used in the tests is a prepared horticultural loam. The formulations used in the tests are prepared from solutions of the test compounds in acetone containing 0.4% by weight of an alkylphenol/ethylene oxide condensate available under the trade mark TRITON X-155. […] In these tests untreated sown soil are used as controls.
(§4) The herbicidal effects of the test compounds are assessed visually twenty-one days after spraying the foliage and the soil and are recorded on a 0-9 scale. A rating 0 indicates growth as untreated control, a rating 9 indicates death. An increase of 1 unit on the linear scale approximates to a 10% increase in the level of effect.

Triticum aestivum [2] = experiment: Pre-emergence herbicidal test, TRZAW; parameters: key: A rating 0 indicates growth as untreated control; a rating 9 indicates death; settings: 21 days after spraying
Description: as §1, §2, §3, §4

Galium aparine [3] = experiment: Pre-emergence herbicidal test, GALAP; parameters: key to herbicidal effect (0-9 scale) GALAP / herbicidal rating GALAP: A rating 0 indicates growth as untreated control; a rating 9 indicates death; settings: PRE, 21 days after spraying
Description: as §1, §2, §3, §4

Echinochloa crus-galli [4] = experiment: Post-emergence herbicidal test, ECHCG; settings: 21 days after spraying
Description: as §1
(§5) […] After spraying, the plants are placed on greenhouse benches and are cared for in the usual manner, commensurate with conventional greenhouse practices.
as §4

Triticum aestivum [5] = experiment: Post-emergence herbicidal test, TRZAW; parameters: key to herbicidal effect (0-9 scale) TRZAW: A rating 0 indicates growth as untreated control; a rating 9 indicates death; settings: POST, 21 days after spraying
Description: as §1, §5, §4

Echinochloa crus-galli [6] = experiment: Pre-emergence herbicidal test, ECHCG; settings: 21 days after spraying
Description: as §1, §2, §3, §4

Ipomoea hederacea [7] = experiment: Post-emergence herbicidal test, IPOHE; parameters: key to herbicidal effect (0-9 scale) IPOHE / herbicidal rating IPOHE: A rating 0 indicates growth as untreated control; a rating 9 indicates death; settings: POST, 21 days after spraying
Description: as §1, §5, §4

Abutilon theophrasti [8] = experiment: Post-emergence herbicidal test, ABUTH; parameters: key to herbicidal effect (0-9 scale) ABUTH / herbicidal rating ABUTH: A rating 0 indicates growth as untreated control; a rating 9 indicates death; settings: POST, 21 days after spraying
Description: as §1, §5, §4

Stellaria media [9] = experiment: Pre-emergence herbicidal test, STEME; parameters: key to herbicidal effect (0-9 scale) STEME / herbicidal rating STEME: A rating 0 indicates growth as untreated control; a rating 9 indicates death; settings: PRE, 21 days after spraying
Description: as §1, §2, §3, §4

Abutilon theophrasti [10] = experiment: Pre-emergence herbicidal test, ABUTH; parameters: key to herbicidal effect (0-9 scale) ABUTH / herbicidal rating ABUTH: A rating 0 indicates growth as untreated control; a rating 9 indicates death; settings: PRE, 21 days after spraying
Description: as §1, §2, §3, §4

Matricaria inodora [11] = experiment: Post-emergence herbicidal test, MATIN; settings: POST, 21 days after spraying
Description: as §1, §5, §4

Alopecurus myosuroides [12] = experiment: Post-emergence herbicidal test, ALOMY; settings: 21 days after spraying
Description: as §1, §5, §4

Setaria viridis [13] = experiment: Post-emergence herbicidal test, SETVI; parameters: key to herbicidal effect (0-9 scale) SETVI / herbicidal rating SETVI: A rating 0 indicates growth as untreated control; a rating 9 indicates death; settings: POST, 21 days after spraying
Description: as §1, §5, §4

Stellaria media [14] = experiment: Post-emergence herbicidal test, STEME; parameters: key to herbicidal effect (0-9 scale) STEME / herbicidal rating STEME: A rating 0 indicates growth as untreated control; a rating 9 indicates death; settings: POST, 21 days after spraying
Description: as §1, §5, §4

Setaria viridis [15] = experiment: Pre-emergence herbicidal test, SETVI; settings: PRE, 21 days after spraying
Description: as §1, §2, §3, §4

Ipomoea hederacea [16] = experiment: Pre-emergence herbicidal test, IPOHE; settings: 21 days after spraying
Description: as §1, §2, §3, §4

Hordeum vulgare [17] = experiment: Post-emergence herbicidal test, HORVW; settings: 21 days after spraying
Description: as §1
These acetone solutions are diluted with water and the resulting formulations applied at dosage levels equivalent to about 1000, 800, 400, 250 or 100 g/ha per hectare of test compound per pot. After spraying, the plants are placed on greenhouse benches and are cared for in the usual manner, commensurate with conventional greenhouse practices.
as §4

Matricaria inodora [18] = experiment: Pre-emergence herbicidal test, MATIN; settings: PRE, 21 days after spraying
Description: as §1, §2, §3, §4

Glycine max [19] = experiment: Post-emergence herbicidal test, GLXMA; settings: 21 days after spraying
Description: as §1, §5, §4

Galium aparine [20] = experiment: Post-emergence herbicidal test, GALAP; settings: POST, 21 days after spraying
Description: as §1, §5, §4

Zea mays [21] = experiment: Post-emergence herbicidal test, ZEAMX; settings: 21 days after spraying
Description: as §1, §5, §4

Glycine max [22] = experiment: Pre-emergence herbicidal test, GLXMA; parameters: key to herbicidal effect (0-9 scale) GLXMA / herbicidal rating GLXMA: A rating 0 indicates growth as untreated control; a rating 9 indicates death; settings: PRE, 21 days after spraying
Description: as §1, §2, §3, §4

Zea mays [23] = experiment: Pre-emergence herbicidal test, ZEAMX; settings: PRE, 21 days after spraying
Description: as §1, §2, §3, §4

Hordeum vulgare [24] = experiment: Pre-emergence herbicidal test, HORVW; parameters: key: A rating 0 indicates growth as untreated control; a rating 9 indicates death; settings: 21 days after spraying
Description: as §1, §2, §3, §4

Cn1c(C(F)(F)F)cc(=O)n(-n2ccc3ccc([N+](=O)[O-])cc32)c1=O [Example 5]
herbicidal effect (0-9 scale) ALOMY (Alopecurus myosuroides [1]; 250 g/ha): 3
herbicidal effect (0-9 scale) ALOMY (Alopecurus myosuroides [1]; 1000 g/ha): 6
herbicidal effect (0-9 scale) TRZAW (Triticum aestivum [2]; 250 g/ha): 2
herbicidal effect (0-9 scale) TRZAW (Triticum aestivum [2]; 1000 g/ha): 5
herbicidal effect (0-9 scale) GALAP (Galium aparine [3]; 250 g/ha): 5
herbicidal effect (0-9 scale) GALAP (Galium aparine [3]; 1000 g/ha): 8
herbicidal effect (0-9 scale) ECHCG (Echinochloa crus-galli [4]; 250 g/ha): 5
herbicidal effect (0-9 scale) ECHCG (Echinochloa crus-galli [4]; 1000 g/ha): 8
herbicidal effect (0-9 scale) TRZAW (Triticum aestivum [5]; 250 g/ha): 0
herbicidal effect (0-9 scale) TRZAW (Triticum aestivum [5]; 1000 g/ha): 2
herbicidal effect (0-9 scale) ECHCG (Echinochloa crus-galli [6]; 250 g/ha): 7
herbicidal effect (0-9 scale) ECHCG (Echinochloa crus-galli [6]; 1000 g/ha): 8
herbicidal effect (0-9 scale) IPOHE (Ipomoea hederacea [7]; 250 g/ha): 6
herbicidal effect (0-9 scale) IPOHE (Ipomoea hederacea [7]; 1000 g/ha): 9
herbicidal effect (0-9 scale) ABUTH (Abutilon theophrasti [8]; 250 g/ha): 8
herbicidal effect (0-9 scale) ABUTH (Abutilon theophrasti [8]; 1000 g/ha): 9
herbicidal effect (0-9 scale) STEME (Stellaria media [9]; 250 g/ha): 0
herbicidal effect (0-9 scale) STEME (Stellaria media [9]; 1000 g/ha): 2
herbicidal effect (0-9 scale) ABUTH (Abutilon theophrasti [10]; 250 g/ha): 5
herbicidal effect (0-9 scale) ABUTH (Abutilon theophrasti [10]; 1000 g/ha): 9
herbicidal effect (0-9 scale) MATIN (Matricaria inodora [11]; 250 g/ha): 4
herbicidal effect (0-9 scale) MATIN (Matricaria inodora [11]; 1000 g/ha): 7
herbicidal effect (0-9 scale) ALOMY (Alopecurus myosuroides [12]; 250 g/ha): 1
herbicidal effect (0-9 scale) ALOMY (Alopecurus myosuroides [12]; 1000 g/ha): 4
herbicidal effect (0-9 scale) SETVI (Setaria viridis [13]; 250 g/ha): 7
herbicidal effect (0-9 scale) SETVI (Setaria viridis [13]; 1000 g/ha): 8
herbicidal effect (0-9 scale) STEME (Stellaria media [14]; 250 g/ha): 0
herbicidal effect (0-9 scale) STEME (Stellaria media [14]; 1000 g/ha): 5
herbicidal effect (0-9 scale) SETVI (Setaria viridis [15]; 250 g/ha): 8
herbicidal effect (0-9 scale) SETVI (Setaria viridis [15]; 1000 g/ha): 8
herbicidal effect (0-9 scale) IPOHE (Ipomoea hederacea [16]; 250 g/ha): 5
herbicidal effect (0-9 scale) IPOHE (Ipomoea hederacea [16]; 1000 g/ha): 5
herbicidal effect (0-9 scale) HORVW (Hordeum vulgare [17]; 250 g/ha): 2
herbicidal effect (0-9 scale) HORVW (Hordeum vulgare [17]; 1000 g/ha): 4
herbicidal effect (0-9 scale) MATIN (Matricaria inodora [18]; 250 g/ha): 7
herbicidal effect (0-9 scale) MATIN (Matricaria inodora [18]; 1000 g/ha): 8
herbicidal effect (0-9 scale) GLXMA (Glycine max [19]; 250 g/ha): 6
herbicidal effect (0-9 scale) GLXMA (Glycine max [19]; 1000 g/ha): 8
herbicidal effect (0-9 scale) GALAP (Galium aparine [20]; 250 g/ha): 4
herbicidal effect (0-9 scale) GALAP (Galium aparine [20]; 1000 g/ha): 6
herbicidal effect (0-9 scale) ZEAMX (Zea mays [21]; 250 g/ha): 2
herbicidal effect (0-9 scale) ZEAMX (Zea mays [21]; 1000 g/ha): 5
herbicidal effect (0-9 scale) GLXMA (Glycine max [22]; 250 g/ha): 0
herbicidal effect (0-9 scale) GLXMA (Glycine max [22]; 1000 g/ha): 0
herbicidal effect (0-9 scale) ZEAMX (Zea mays [23]; 250 g/ha): 4
herbicidal effect (0-9 scale) ZEAMX (Zea mays [23]; 1000 g/ha): 5
herbicidal effect (0-9 scale) HORVW (Hordeum vulgare [24]; 250 g/ha): 4
herbicidal effect (0-9 scale) HORVW (Hordeum vulgare [24]; 1000 g/ha): 6

Cn1c(C(F)(F)F)cc(=O)n(-n2ccc3ccc(Br)cc32)c1=O [Example 6]
herbicidal effect (0-9 scale) ALOMY (Alopecurus myosuroides [1]; 100 g/ha): 1
herbicidal effect (0-9 scale) ALOMY (Alopecurus myosuroides [1]; 400 g/ha): 3
herbicidal effect (0-9 scale) TRZAW (Triticum aestivum [2]; 100 g/ha): 0
herbicidal effect (0-9 scale) TRZAW (Triticum aestivum [2]; 400 g/ha): 0
herbicidal effect (0-9 scale) GALAP (Galium aparine [3]; 100 g/ha): 2
herbicidal effect (0-9 scale) GALAP (Galium aparine [3]; 400 g/ha): 9
herbicidal effect (0-9 scale) ECHCG (Echinochloa crus-galli [4]; 100 g/ha): 4
herbicidal effect (0-9 scale) ECHCG (Echinochloa crus-galli [4]; 400 g/ha): 8
herbicidal effect (0-9 scale) TRZAW (Triticum aestivum [5]; 100 g/ha): 2
herbicidal effect (0-9 scale) TRZAW (Triticum aestivum [5]; 400 g/ha): 3
herbicidal effect (0-9 scale) ECHCG (Echinochloa crus-galli [6]; 100 g/ha): 1
herbicidal effect (0-9 scale) ECHCG (Echinochloa crus-galli [6]; 400 g/ha): 5
herbicidal effect (0-9 scale) IPOHE (Ipomoea hederacea [7]; 100 g/ha): 8
herbicidal effect (0-9 scale) IPOHE (Ipomoea hederacea [7]; 400 g/ha): 9
herbicidal effect (0-9 scale) ABUTH (Abutilon theophrasti [8]; 100 g/ha): 9
herbicidal effect (0-9 scale) ABUTH (Abutilon theophrasti [8]; 400 g/ha): 9
herbicidal effect (0-9 scale) STEME (Stellaria media [9]; 100 g/ha): 1
herbicidal effect (0-9 scale) STEME (Stellaria media [9]; 400 g/ha): 4
herbicidal effect (0-9 scale) ABUTH (Abutilon theophrasti [10]; 100 g/ha): 6
herbicidal effect (0-9 scale) ABUTH (Abutilon theophrasti [10]; 400 g/ha): 8
herbicidal effect (0-9 scale) MATIN (Matricaria inodora [11]; 100 g/ha): 3
herbicidal effect (0-9 scale) MATIN (Matricaria inodora [11]; 400 g/ha): 5
herbicidal effect (0-9 scale) ALOMY (Alopecurus myosuroides [12]; 100 g/ha): 2
herbicidal effect (0-9 scale) ALOMY (Alopecurus myosuroides [12]; 400 g/ha): 4
herbicidal effect (0-9 scale) SETVI (Setaria viridis [13]; 100 g/ha): 7
herbicidal effect (0-9 scale) SETVI (Setaria viridis [13]; 400 g/ha): 9
herbicidal effect (0-9 scale) STEME (Stellaria media [14]; 100 g/ha): 5
herbicidal effect (0-9 scale) STEME (Stellaria media [14]; 400 g/ha): 8
herbicidal effect (0-9 scale) SETVI (Setaria viridis [15]; 100 g/ha): 5
herbicidal effect (0-9 scale) SETVI (Setaria viridis [15]; 400 g/ha): 8
herbicidal effect (0-9 scale) IPOHE (Ipomoea hederacea [16]; 100 g/ha): 1
herbicidal effect (0-9 scale) IPOHE (Ipomoea hederacea [16]; 400 g/ha): 2
herbicidal effect (0-9 scale) HORVW (Hordeum vulgare [17]; 100 g/ha): 3
herbicidal effect (0-9 scale) HORVW (Hordeum vulgare [17]; 400 g/ha): 3
herbicidal effect (0-9 scale) MATIN (Matricaria inodora [18]; 100 g/ha): 1
herbicidal effect (0-9 scale) MATIN (Matricaria inodora [18]; 400 g/ha): 5
herbicidal effect (0-9 scale) GLXMA (Glycine max [19]; 100 g/ha): 4
herbicidal effect (0-9 scale) GLXMA (Glycine max [19]; 400 g/ha): 8
herbicidal effect (0-9 scale) GALAP (Galium aparine [20]; 100 g/ha): 5
herbicidal effect (0-9 scale) GALAP (Galium aparine [20]; 400 g/ha): 8
herbicidal effect (0-9 scale) ZEAMX (Zea mays [21]; 100 g/ha): 2
herbicidal effect (0-9 scale) ZEAMX (Zea mays [21]; 400 g/ha): 3
herbicidal effect (0-9 scale) GLXMA (Glycine max [22]; 100 g/ha): 0
herbicidal effect (0-9 scale) GLXMA (Glycine max [22]; 400 g/ha): 0
herbicidal effect (0-9 scale) ZEAMX (Zea mays [23]; 100 g/ha): 2
herbicidal effect (0-9 scale) ZEAMX (Zea mays [23]; 400 g/ha): 4
herbicidal effect (0-9 scale) HORVW (Hordeum vulgare [24]; 100 g/ha): 0
herbicidal effect (0-9 scale) HORVW (Hordeum vulgare [24]; 400 g/ha): 1
